Where “and” joins values, the source holds several entries; their conditions need not be identical. Identical values can stand only once. Entries after “also recorded” stand apart in the source; their conditions may differ.
Test system: vascular cell adhesion molecule-1 (VCAM-1)
Experiment: Assay C: VCAM-1 mRNA in heart by TaqMan RT-PCR
Type: in vivo, Male Sprague-Dawley rats
Conditions: for VCAM mRNA (AU): relative to cyclophilin expression, mean ± SEM, eplerenone dose 100 mg/kg/day; for VCAM (AU): mRNA; for VCAM-1 mRNA expression: myocardium, aldosterone + salt, 7, 14, 30 days, eplerenone 100 mg/kg/day
Description: The procedure of Assay B was expanded upon in a further study. […] Myocardial tissue from animals in each treatment group was examined after 7, 14, or 30 days of treatment.
Potassium chloride supplementation was added to the saline solution in order to prevent the potential hypokalemia associated with aldosterone excess.
At the time of the surgery, an Alzet 2002 osmotic minipump (Alza Corp., Palo Alto, Calif.) containing either vehicle (9% ethanol/87% propylene glycol/4% dH2O) or 1.0 mg/mL d-aldosterone (Sigma Chemical, St. Louis, Mo.) was inserted subcutaneously at the nape of the neck. Aldosterone was administered at a dose of 0.75 µg/hour. […] Animals were sacrificed from each group (n=8-13) after 7, 14, or 30 days of treatment.
The fluorogenic 5′-nuclease assay (TaqMan PCR) using Applied Biosystems' 7700 Sequence Detection System (Applied Biosystems, Foster City, Calif.) allowed for real time detection/quantitation of a specific gene by monitoring the increase in fluorescence of a gene-specific, dye-labeled oligonucleotide probe. Probes for target and reference genes were labeled at the 5′-end with a 6-carboxyfluorescein (6FAM) reporter dye and at the 3′-end with a 6-carboxy-N,N,N′,N′-tetramethylrhodamine (TAMRA) quencher dye. When the probe was annealed to the target gene, fluorescence of 6FAM was prevented by the close proximity of TAMRA. The exonuclease activity of Taq polymerase released the dyes from the oligonucleotide probe by displacing the probe from the target sequence resulting in fluorescence excitation in direct proportion to the amount of target message present. Data analysis was performed using the Sequence Detection System software from Applied Biosystems.
All primers and probes were designed using Primer Express software supplied with the 7700 Sequence Detection System and synthesized by Applied Biosystems. Standard curves using 5-fold dilutions of total RNA (from 200 ng to 320 pg) were performed to determine the efficiency of each primer/probe set in the TaqMan reaction prior to the analysis of the experimental samples. Primer/probe sets were designed from known sequences of rat genes to be analyzed. All target gene values were normalized to a reference gene, constitutively expressed cyclophilin. Primer/probe set sequences can be found in Table 8.
RNA was extracted from frozen (−80° C.) rat heart tissue using the Totally RNA Isolation Kit (Ambion, Inc., Austin, Tex.). Tissue was crushed using a stainless steel mortar and pestle, which had been chilled to −80° C. and transferred to a dounce homogenizer (Kontes, Vineland, N.J.) containing 3-10 mL cold denaturation buffer. Tissue was homogenized and transferred to a sterile, 15 mL polypropylene centrifuge tube. An equal volume of phenol:chloroform:isoamyl alcohol (25:24:1) was added, samples were shaken vigorously for 1 min, and incubated on ice for at least 15 min. Samples were centrifuged for 30 min at 10,000g. The aqueous phase was removed, 1/10 volume of a sodium acetate solution (3.0 M NaOAc pH 4.5) was added, samples were shaken or inverted for 10 seconds, and acid-phenol (premixed with isoamyl alcohol):chloroform (5:1, Ambion, Inc.) was added at an volume equivalent to the starting sample volume. Samples were shaken vigorously for 1 min, followed by a 15-min incubation on ice, and centrifuged for 30 min at 10,000 g. The aqueous phase removed and placed in a clean polypropylene tube. An equal volume of isopropanol (Sigma, St. Louis, Mo.) was added and the samples were mixed and incubated overnight at −20° C. The samples were centrifuged for 30 min at 10,000 g, the supernatant was removed and the RNA pellet was resuspended in DNAse/RNAse-free water. Samples were frozen at −80° C. for at least 2 hours, thawed on wet ice, and diluted for quantitation.

[1] = group mean, data used for Table 17 (7-day protocol)
[2] = group mean, data used for Table 18 (14-day protocol)
[3] = group mean, data used for Table 19 (30-day protocol)

SMILES	VCAM mRNA (AU) (after 7 days of treatment)	VCAM mRNA (AU) (after 14 days of treatment)	VCAM mRNA (AU) (after 30 days of treatment)	VCAM (AU) [1] [AU]	VCAM (AU) [2] [AU]	VCAM (AU) [3] [AU]	VCAM (AU) (individual rats, data used for Table 17 (7-day protocol), incl. rat marked * excluded from statistics, listed as Eplerenone + aldosterone + salt)	VCAM (AU) (individual rats, data used for Table 18 (14-day protocol), incl. rat marked * excluded from statistics, listed as Eplerenone + aldosterone + salt)	VCAM (AU) (individual rats, data used for Table 19 (30-day protocol), incl. rat marked * excluded from statistics, listed as Eplerenone + aldosterone + salt)	VCAM-1 mRNA expression	VCAM (AU) (individual rats, data used for Table 17 (7-day protocol), incl. rat marked * excluded from statistics, listed as Aldosterone + salt)	VCAM (AU) (individual rats, data used for Table 18 (14-day protocol), incl. rat marked * excluded from statistics, listed as Aldosterone + salt)	VCAM (AU) (individual rats, data used for Table 19 (30-day protocol), incl. rat marked * excluded from statistics, listed as Aldosterone + salt)
COC(=O)[C@@H]1CC2=CC(=O)CC[C@]2(C)[C@@]23O[C@@H]2C[C@@]2(C)[C@@H](CC[C@@]24CCC(=O)O4)[C@H]13 [Eplerenone]	0.56 ± 0.08	0.83	1.04 ± 0.14	0.56	0.83	1.04	0.67 AU and 0.58 AU and 0.22 AU and 0.57 AU and 0.53 AU and 1.00 AU	0.54 AU and 0.66 AU and 0.61 AU (2×) and 0.67 AU and 0.86 AU and 1.21 AU and 1.00 AU and 0.68 AU (2×) and 1.60 AU	1.42 AU (2×) and 1.29 AU and 1.49 AU and 1.27 AU and 0.79 AU and 0.52 AU and 0.57 AU and 0.61 AU and 4.01 AU	inhibition; also recorded: significantly reduced			
C[C@]12CCC(=O)C=C1CC[C@@H]1[C@@H]2[C@@H](O)C[C@]2(C=O)[C@@H](C(=O)CO)CC[C@@H]12 [Aldosterone]	1.55 ± 0.39	1.16	2.14 ± 0.49	1.55	1.16	2.14				increased two-fold	3.49 AU and 0.85 AU and 2.06 AU and 2.51 AU and 1.65 AU and 0.61 AU and 0.94 AU and 0.27 AU and 5.23 AU	0.89 AU and 0.69 AU and 0.84 AU and 0.72 AU and 2.23 AU and 1.03 AU and 1.65 AU and 1.24 AU and 1.75 AU	3.48 AU and 1.87 AU and 2.99 AU and 1.64 AU and 0.72 AU

Reference: patent US6716829B2, “Aldosterone antagonist and cyclooxygenase-2 inhibitor combination therapy to prevent or treat inflammation-related cardiovascular disorders” (Pharmacia Corporation, priority 2000, dated 2004)
